Reference: US20240299408A1, “METHODS OF TREATING 4-REPEAT TAUOPATHIES” (Woolsey Pharmaceuticals, Inc., priority 2020, published 2024)
Counter-ions that a name gives are not always drawn.

What was measured:
PSP patients = details: cited from earlier work; for effect or benefit in clinical trial in PSP: PSP patients (riluzole: PSP and MSA)
[1] = in vivo, 1-hydroxy metabolite; cited from earlier work
[2] = system: subjects with probable or possible PSP; assay: treatment of probable or possible PSP subjects with fasudil, assessments at six months and one year versus baseline and historical controls; type: in vivo, human

Molecule: Nc1nc2ccc(OC(F)(F)F)cc2s1 [riluzole]
- effect or benefit in clinical trial in PSP (PSP patients): failed to demonstrate effects

Molecule: C=CC1O[C@H]2C[C@H]3OC[C@@]3(OC(C)=O)[C@H]3[C@H](OC(=O)c4ccccc4)[C@]4(O)C[C@H](OC(=O)[C@H](O)[C@H](CC(C)C)NC(=O)OC(C)(C)C)C(C)=C([C@H](OC(C)=O)[C@H](O1)[C@]23C)C4(C)C (stereo partly drawn) [TPI 287]
- effect or benefit in clinical trial in PSP (PSP patients): failed to show any effect

Molecule: O=C(Oc1ccccc1C(=O)O)c1ccccc1O [Salsalate]
- effect or benefit in clinical trial in PSP (PSP patients): failed

Molecule: COC1=C(OC)C(=O)C(C/C=C(\C)CC/C=C(\C)CC/C=C(\C)CC/C=C(\C)CC/C=C(\C)CC/C=C(\C)CC/C=C(\C)CC/C=C(\C)CC/C=C(\C)CCC=C(C)C)=C(C)C1=O [coenzyme Q10]
- effect or benefit in clinical trial in PSP (PSP patients): failed to provide benefit

Molecule: O=S(=O)(c1cccc2c(O)nccc12)N1CCCNCC1 [M3]
- half-life [1]: about 8 hours

Molecule: O=c1sn(-c2cccc3ccccc23)c(=O)n1Cc1ccccc1 [tideglusib]
- effect or benefit in clinical trial in PSP (PSP patients): failed to show benefit

Molecule: [Li] [lithium]
- tolerability in open-label trial in PSP (PSP patients; open-label trial in PSP): terminated due to poor tolerability

Molecule: O=S(=O)(c1cccc2cnccc12)N1CCCNCC1 [fasudil, Hexahydro-1-(5-isoquinolinesulfonyl)-1H-1,4-diazepine monohydrochloride hemihydrate]
- oculomotor and sleep parameters ([2]; fasudil 180 mg/day): improve
- PSP-RS increase over a year ([2]; fasudil 180 mg/day (60 mg tid), average is closer to 10): ≤ 5 point

Molecule: CC[C@H](C)[C@H](NC(=O)[C@H](CO)NC(=O)[C@@H](NC(=O)[C@@H]1CCCN1C(=O)[C@H](C)NC(=O)[C@@H](N)CC(N)=O)C(C)C)C(=O)N1CCC[C@H]1C(=O)N[C@@H](CCC(N)=O)C(=O)O [Davunetide]
- effect or benefit in clinical trial in PSP (PSP patients): not shown not to be effective

B1: Gosuranemab: humanized monoclonal antibody that targets N-terminal tau (antibody, chains of the INN, looked up, V domains shown)
VH: EVHLVESGGALVKPGGSLRLSCAASGFSFSKYGMSWVRQAPGKGLEWVATISSSGSRTYYPDSVKGRFTISRDNAKNTLYLQMNSLRAEDTAMYYCSISWDGAMDYWGQGTTVTVSS
VL: DVVMTQSPLSLPVTLGQPASISCKSSQSIVHSNGNTYLEWYLQKPGQSPQLLVYKVSNRFSGVPDRFSGSGSGTDFTLKISRVEAEDVGTYYCFQGSLVPWAFGGGTKVEIK
- effect or benefit in clinical trial in PSP (PSP patients): no effect

B2: ABBV-8E12: humanized anti-tau monoclonal antibody (antibody, chains of the INN, looked up, V domains shown)
VH: EVKVVESGGGLVQPGGSMKLSCVVSGFTFSNYWVNWVRQAPGKGLEWVAQIRLKSDNYATHYEESVKGRFTISRDDSKSSVYLQMNNLRAEDSGIYYCTNWEDYWGQGTTVTVSS
VL: DIVLTQSPDSLAVSLGERATISCRASQSVSTSRYSYIHWYQQKPGQPPKLLIKYASNLESGVPSRFSGSGSGTDFTLNIHPLEPEDFATYYCHHSWEIPLTFGQGTKLEIK
- effect or benefit in clinical trial in PSP (PSP patients): failed to demonstrate an effect
